Test results taken from patent US20260234268A1, “ANTI-ASGR1 MONOCLONAL ANTIBODY AND USE THEREOF” (CHOLESGEN (SHANGHAI) CO., LTD., priority 2022, published 2026).

Key:
[1] = system: mice fed a high-fat, high-cholesterol, and cholate (HF/HC/BS) diet; assay: 4B9 and atorvastatin, alone or combined, in mice fed HF/HC/BS diet, 14 days (Example 2, FIG. 3); conditions: 4B9 10 mg/kg/day i.p. every other day
Experimental: 8-week-old Asgr1 knockout mice and wild-type littermates are randomly divided into 8 groups as shown in the figure according to the genotype, with 6 mice per group. The mice are given free access to water and fed a high-fat, high-cholesterol, and cholate (HF/HC/BS) diet (60% fat, 1.25% cholesterol, and 0.5% cholate). […] After 14 days, the mice are fasted for 4 hours before being sacrificed. All data are presented as mean±SEM. Statistical significance is calculated using an unpaired two-tailed Student's t-test. *p<0.05, **p<0.01, ***p<0.001. (a) Western blotting analysis of liver samples; (b) total cholesterol in serum; (c) triglyceride in serum; (d) total cholesterol in liver; (e) triglyceride in liver; (f) concentration of cholesterol in bile; (g) total cholesterol in bile; (h) concentration of bile acid in bile; (i) total bile acid in bile; (j) total cholesterol in feces; (k) body weight; (l) daily food intake; (m) ratio of liver weight to body weight; (n) blood glucose; (o) alanine transaminase in serum; (p) aspartate transaminase in serum; (q-r) real-time quantitative PCR analysis of genes related to cholesterol efflux, cholesterol synthesis and absorption, lipid synthesis, and bile acid synthesis in the liver of mice, and genes in other pathways, with cyclophilin as an internal reference; (s) hematoxylin-eosin staining of liver sections; (t) oil red O staining of liver sections.
In the experiment, wild-type littermates were used as a control. All mice were housed in an SPF (specific pathogen-free) facility and kept on a 12-hour light/12-hour dark cycle. 8-week-old male or female mice were fed a high-fat, high-cholesterol, and cholate diet (Research Diets, D12109C) as required by the experimental protocols. For treatments involving antibody neutralization or the combination of antibodies with statins or Ezetimibe, the mice were intraperitoneally injected with antibodies or intragastrically administered with drugs at specified doses. All animals were fasted for 4 hours before being sacrificed.
The collected cells or tissues were lysed in RIPA lysis buffer supplemented with protease and phosphatase inhibitors. The RIPA lysis buffer contained 50 mM Tris-HCl (pH=8.0), 150 mM NaCl, 2 mM MgCl2, 1.5% NP-40, 0.1% SDS, and 0.5% sodium deoxycholate. The protease inhibitor contained 10 μM MG-132, 10 μg/mL leupeptin, 1 mM PMSF, 5 μg/mL pepstatin, 25 μg/mL ALLN, and 1 mM DTT. The protein concentration of the lysate was determined using a BCA method (Thermo Fisher Scientific). The protein samples were incubated with membrane solubilization buffer (62.5 mM Tris-HCl (pH=6.8), 15% SDS, 8 M urea, 10% glycerol, and 100 mM DTT) and 4× loading buffer (150 mM Tris-HCl (pH=6.8), 12% SDS, 30% glycerol, 6% β-mercaptoethanol, and 0.02% bromophenol blue) at 37° C. for 30 minutes. The protein samples were separated by SDS-PAGE and transferred to a PVDF membrane, which was blocked in TBST, i.e., TBS containing 0.075% Tween 20 and 5% skim milk (3% BSA for phosphorylation experiments) for 1 hour. The membrane was incubated overnight at 4° C. with a specified primary antibody, and washed three times with TBST. Finally, Pierce ECL Plus Western blotting substrate (Thermo Fisher Scientific) was used for detection.
Blood was collected from the orbital sinus to obtain serum for the measurement of total cholesterol and triglyceride.

[2] = system: mice fed a high-fat, high-cholesterol, and cholate (HF/HC/BS) diet; assay: 4B9 and Ezetimibe, alone or combined, in mice fed HF/HC/BS diet (Example 3, FIG. 4); format: in vivo, mouse; conditions: sacrificed on day 7, 4B9 10 mg/kg i.p. every other day
Experimental: All data are presented as mean±SEM.
We then devised an experiment as in FIG. 4 to verify the hypothesis. Mice were randomly divided into 8 groups according to the genotype (n=6) and fed an HF/HC/BS diet. They were intragastrically administered with EZ at 10 mg/kg per day and were intraperitoneally injected with 4B9 at 10 mg/kg every other day. The mice were sacrificed on day 7 to collect their tissues.

[3] = Ezetimibe used alone, clinical; cited from earlier work
[4] = EZ 10 mg/kg per day intragastric (FIGS. 4a, 4p-q)

In the case of CC(C)c1c(C(=O)Nc2ccccc2)c(-c2ccccc2)c(-c2ccc(F)cc2)n1CC[C@@H](O)C[C@@H](O)CC(=O)O [atorvastatin], the “total cholesterol in serum” value ([1]; atorvastatin 30 mg/kg/day intragastric daily (FIG. 3b)) is reported as “effectively reduce”, the triglyceride in serum ([1]; atorvastatin 30 mg/kg/day intragastric daily (FIG. 3c)) is reported as “effectively reduce” and the triglyceride in liver ([1]; atorvastatin 30 mg/kg/day intragastric daily (FIG. 3e)) is reported as “effectively reduce”. The “total amount of total cholesterol in bile” value ([1]; atorvastatin 30 mg/kg/day intragastric daily (FIG. 3g)) was “almost no effect”, the “total cholesterol in feces” value ([1]; atorvastatin 30 mg/kg/day intragastric daily (FIG. 3j)) was “no effect” and the “total cholesterol in liver” value ([1]; atorvastatin 30 mg/kg/day intragastric daily (FIG. 3d)) was “effectively reduce”. For the same compound, the body weight ([1]; 8 groups of mice, atorvastatin 30 mg/kg/day intragastric daily (FIG. 3k)) was “No significant differences”, the daily food intake ([1]; 8 groups of mice, atorvastatin 30 mg/kg/day intragastric daily (FIG. 3l)) was “No significant differences” and the blood glucose ([1]; 8 groups of mice, atorvastatin 30 mg/kg/day intragastric daily (FIG. 3n)) was “No significant differences”. The ALT ([1]; 8 groups of mice, atorvastatin 30 mg/kg/day intragastric daily (FIG. 3o)) was “No significant differences” and the AST ([1]; 8 groups of mice, atorvastatin 30 mg/kg/day intragastric daily (FIG. 3p)) was “No significant differences”.

For O=C1[C@H](CC[C@H](O)c2ccc(F)cc2)[C@@H](c2ccc(O)cc2)N1c1ccc(F)cc1 [Ezetimibe, reference compound], the body weight ([2]; 8 groups of mice, EZ 10 mg/kg per day intragastric (FIG. 4j)) was “No significant differences”, the daily food intake ([2]; 8 groups of mice, EZ 10 mg/kg per day intragastric (FIG. 4k)) was “No significant differences” and the “ratio of liver weight to body weight” value ([2]; 8 groups of mice, EZ 10 mg/kg per day intragastric (FIG. 4l)) was “No significant differences”. For the same compound, the blood glucose ([2]; 8 groups of mice, EZ 10 mg/kg per day intragastric (FIG. 4m)) was “No significant differences”, the ALT ([2]; 8 groups of mice, EZ 10 mg/kg per day intragastric (FIG. 4n)) was “No significant differences” and the AST ([2]; 8 groups of mice, EZ 10 mg/kg per day intragastric (FIG. 4o)) was “No significant differences”. The “total cholesterol in serum” value ([2]; EZ 10 mg/kg per day intragastric (FIG. 4b)) was “effectively reduce”, the triglyceride in serum ([2]; EZ 10 mg/kg per day intragastric (FIG. 4c)) was “effectively reduce” and the triglyceride in liver ([2]; EZ 10 mg/kg per day intragastric (FIG. 4e)) was “effectively reduce”. For the same compound, the “total amount of total cholesterol in bile” value ([2]; EZ 10 mg/kg per day intragastric (FIG. 4g)) was “significantly inhibited”, the “total amount of total bile acid in bile” value ([2]; EZ 10 mg/kg per day intragastric (FIG. 4i)) was “significantly inhibited” and the “total cholesterol in liver” value ([2]; EZ 10 mg/kg per day intragastric (FIG. 4d)) was “effectively reduce”. For the same compound, the “cholesterol efflux-related genes and their proteins (LXRs, ABCG8, ABCA1, CYP7A1) in liver” value [2, 4] was “significant decrease”, the “lipid synthesis-related genes and their proteins (SREBP1, FASN) in liver” value [2, 4] was “significant decrease” and the “reduction of the plasma concentration of LDL-c” value [3] was “about 20%”.
